Like-named read-outs stand apart in the source and are kept apart here.
Assays:
[1] = logP determination by HPLC on a reversed-phase column (C18), EEC Directive 79/831 Annex V.A8; format: physicochemical
Rhipicephalus sanguineus = Rhipicephalus sanguineus - in vitro contact tests with adult brown dog ticks; format: in vivo; conditions: application rate 5 μg/cm^2, after 48 h (dead or moribund)
Procedure, shortened: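 Test compound was dissolved in acetone p.a. (9 mg in 1 ml, then diluted), and 250 μl were spread evenly over the inner surface of 25 ml test tubes on an orbital shaker at 30 rpm for 2 h. Once the solvent evaporated, 5-10 adult Rhipicephalus sanguineus ticks were sealed in, kept dark at room temperature, and after 48 h placed on a 45-50° C. hotplate to score dead or moribund ticks.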

Ctenocephalides felis = Ctenocephalides felis - in vitro contact tests with adult cat fleas; format: in vivo; conditions: application rate 5 μg/cm^2 (=500 g/ha), after 48 h (dead or moribund)
Procedure, shortened: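 Efficacy, as share of dead or moribund adult Ctenocephalides felis, read 48 h after placing 5-10 fleas in tubes coated by acetone solution (5 μg/cm^2 at 900 ppm). Incubation horizontal at room temperature, ambient humidity; immobile or uncoordinated fleas scored.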

Boophilus microplus = Boophilus microplus - injection test; format: in vivo; conditions: Rhipicephalus microplus, 168 h; application rate 20 μg/animal; injected into engorged adult female ticks; laying of fertile eggs, after 7 days; read-out: efficacy
Procedure, shortened: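 DMSO formulation, 1 μl intra-abdominal injection, n=5 engorged adult females; climate-controlled room; score fertile eggs d7, unclear eggs held until larval hatch (~42 d); % efficacy, 100% = no fertile eggs.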

[2] = tested on: Boophilus microplus Parkhurst strain, SP-resistant; experiment: Boophilus microplus - dip test; format: in vivo; conditions: application rate 100 ppm; dip of engorged adult female ticks; laying of fertile eggs, after 7 days
Procedure, shortened: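 Efficacy reflects suppression of fertile egg laying: 0% means all eggs fertile, 100% none, read at 7 days, doubtful eggs kept ~42 days for larval hatch. Treatment was a complete dip of 8–10 engorged adult female ticks (SP-resistant Parkhurst strain) in a water dilution of a DMSO stock.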

Musca domestica = Musca domestica test; format: in vivo; conditions: application rate 100 ppm; adult houseflies; kill after 2 days
Procedure, shortened: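 First, 10 mg compound was taken up in 0.5 ml DMSO and then brought with water to the required concentration. This was applied with sugar solution to a sponge in vessels holding 10 adult flies; kill was assessed after 2 days.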

Myzus persicae = Myzus persicae - spray test; format: in vivo; conditions: application rate 100 g/ha; Chinese cabbage leaf discs; after 6 days
Protocol: Myzus persicae—Spray Test
Solvent: 78 parts by weight of acetone and 1.5 parts by weight of dimethylformamide
(§1) Emulsifier: alkylaryl polyglycol ether
(§2) To produce an appropriate active ingredient formulation, 1 part by weight of active ingredient is dissolved using the specified parts by weight of solvent and made up with water containing an emulsifier concentration of 1000 ppm until the desired concentration is attained. To produce further test concentrations, the preparation is diluted with emulsifier-containing water.
Discs of Chinese cabbage leaves (Brassica pekinensis) infested by all stages of the green peach aphid (Myzus persicae) are sprayed with an active ingredient formulation of the desired concentration.
After 6 days, efficacy in % is determined. 100% means that all the aphids have been killed; 0% means that none of the aphids have been killed.

Phaedon cochleariae = Phaedon cochleariae - spray test; format: in vivo; conditions: Phaedon cochleariae, foliar, 168 h; application rate 100 g/ha; larvae on Chinese cabbage leaf discs; after 7 days; read-out: efficacy
Protocol: Phaedon cochleariae—Spray Test
(§3) Solvent: 78.0 parts by weight of acetone and 1.5 parts by weight of dimethylformamide
as §1, §2
Discs of Chinese cabbage leaves (Brassica pekinensis) are sprayed with an active ingredient formulation of the desired concentration and, after drying, populated with larvae of the mustard beetle (Phaedon cochleariae).
After 7 days, efficacy in % is determined. 100% means that all the beetle larvae have been killed; 0% means that no beetle larvae have been killed.

Tetranychus urticae = Tetranychus urticae - spray test, OP-resistant; format: in vivo; conditions: foliar, 144 h, application rate 100 g/ha, bean leaf discs, after 6 days, read-out: efficacy
Protocol: Tetranychus urticae—Spray Test, OP-Resistant
as §3, §1, §2
Discs of bean leaves (Phaseolus vulgaris) infested by all stages of the greenhouse red spider mite (Tetranychus urticae) are sprayed with an active ingredient formulation of the desired concentration.
After 6 days, efficacy in % is determined. 100% means that all the spider mites have been killed; 0% means that none of the spider mites have been killed.

Cc1cc(C(F)(C(F)(F)F)C(F)(F)F)cc(C)c1-n1cc(-c2ccc(Cl)c(C(=O)NC3CC3)c2)cn1 [I-T3-1, 2-chloro-N-cyclopropyl-5-[1-[2,6-dimethyl-4-[1,2,2,2-tetrafluoro-1-(trifluoromethyl)ethyl]phenyl]pyrazol-4-yl]benzamide]
4.4: chromatographic logP ([1]; reversed-phase HPLC column (C18), HPLC-MS method a), Table I-T3; read-out: logP^a)) | chromatographic logP ([1]; reversed-phase HPLC column (C18), HPLC-MS method a); read-out: logP^a))
100%: efficacy (Rhipicephalus sanguineus) | efficacy (Ctenocephalides felis) | pest or weed control at 0.02 mg (Boophilus microplus) | efficacy [2] | efficacy (Musca domestica) | efficacy (Myzus persicae) | pest or weed control at 100 g/ha (Phaedon cochleariae) | pest or weed control at 100 g/ha (Tetranychus urticae)
4.36: chromatographic logP ([1]; reversed-phase HPLC column (C18), HPLC, reversed-phase C18, acetonitrile/water with formic acid, 55° C., read-out: logP)

Source: patent US9758485B2, “Compounds for controlling arthropods” (priority 2013, dated 2017)
